Counter-ions that a name gives are not always drawn.
How the values were obtained:
Assay type in all cases: cell-based
[1] = test system: sonic hedgehog pathway; test: Human hedgehog reporter assay Daoy-GliLuc (DGL); conditions: Daoy human medulloblastoma cells, Gli-luciferase reporter
How it was run: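 Stable Gli-promoter luciferase reporter lines (human HepM, Daoy; mouse S12) plated at 10,000–20,000 cells/well, switched to 0.5% FBS after 48–72 h, then given compound (1–5 μM; 11-point 1:3 dose curves) with or without octyl-modified hedgehog protein (1–5 ng/ml) for 24 h. Luminescence read; AMAX vs plate controls and EC50 derived.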

[2] = test system: sonic hedgehog pathway; test: Hedgehog pathway Gli-luciferase reporter assay, TM3 cells; conditions: TM3 mouse Leydig cells
How it was run: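 Reporter cells stably selected after gli-luciferase plasmid transfection; test article dosed over 11 points (1:3). Read as luminescence after 24 h treatment in 0.5% serum; activity >20% AMAX versus plate controls deemed active.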

[3] = test system: sonic hedgehog pathway; test: Human hedgehog reporter assay HEPM-GliLuc (HGL); conditions: HepM human embryonic palatal mesenchymal cells, Gli-luciferase reporter
Text: (§1) Mouse (TM3: mouse Leydig cells; S12: mouse embryonic mesenchymal cells) and human (Daoy: human medulloblastoma cell; HepM: human embryonic palatal mesenchymal cell) cell lines are used to screen small molecules for their ability to modulate the activity of the sonic hedgehog pathway (Table 1, Table 2, and Table 3). Stable hedgehog pathway reporter cell lines are established by specific antibiotic selection following transfection of a reporter plasmid containing a luciferase gene located directly downstream from the gli promoter. Consequently, any observable changes in cellular luciferase activity may be attributed to changes in sonic hedgehog pathway activity in mouse and human cells, respectively, since gli is the major by-product of this pathway. To calculate activity, we generate an eleven point dose curve for each compound using 1:3 dilutions in 96 well assay plates. Each plate tested also contains low and high control to establish maximal pathway activation so to establish/compare a percentage activation of each tested compound (AMAX) on respective plates. Also we calculate EC50 values, or a concentration where the pathway will be exactly 50% activated, for each tested compound to determine potency. In these cell lines, compounds that register >20% AMAX values are considered active.
(§2) Stable hedgehog pathway reporter cell lines are established following specific antibiotic selection following transfection of a reporter plasmid In short, typically cells are plated in MicroTiter-plates at 10,000-20,000 cells per well, in growth media (containing 10%-20% FBS). After 48-72 hrs (HGL and DGL respectively) the media in the assay plates is switched to low-serum containing media (0.5% FBS). At that time compounds are added (at 1-5 μM) to the assay plates, in the presence or absence of hedgehog protein (octyl-modified version; 1-5 ng/ml). After another 24 hrs of incubation, the media from the assay plates is discarded and replaced with luciferase assay-mix. Subsequently, plates are incubated at RT for ˜15-30 mins and then read in a luminometer. [note: addition of the Hedgehog protein, although not critical, will sensitize the assay allowing the identification of weak actives].

[4] = test system: sonic hedgehog pathway; test: Hedgehog pathway Gli-luciferase reporter assay, S12 cells; conditions: S12 mouse embryonic mesenchymal cells, read-out: Mouse S12 Avg. EC50
Text: as §1, §2

[5] = read-out: Human Daoy (Gli-Luc) Avg. EC50

Structure (SMILES) | EC50 ([1]; read-out: Daoy Avg. EC50) | EC50 [2] | EC50 [1, 5] | EC50 [3] | EC50 [4]
CCOc1ccc(-c2cccc(C#N)c2)cc1CN(C(=O)c1sc2ccccc2c1Cl)[C@H]1CC[C@@H](NC)CC1 [Compound 328, 3-Chloro-benzo[b]thiophene-2-carboxylic acid (3′-cyano-4-ethoxy-biphenyl-3-ylmethyl)-(4-methylamino-cyclohexyl)-amide hydrochloride] | < 50 nM | < 50 nM |  | 50 to 250 nM | 
CN[C@H]1CC[C@@H](N(Cc2cc(-c3ccc(CCl)cc3)ccc2OC)C(=O)c2sc3ccccc3c2Cl)CC1 [Compound 340, 3-Chloro-benzo[b]thiophene-2-carboxylic acid (4′-chloromethyl-4-methoxy-biphenyl-3-ylmethyl)-(4-methylamino-cyclohexyl)-amide hydrochloride] | < 50 nM | < 50 nM |  | < 50 nM | 
CN[C@H]1CC[C@@H](N(Cc2cc(-c3cc(C)nc(C)c3)ccc2OC)C(=O)c2sc3cccc(F)c3c2Cl)CC1 [Compound 353, 3-Chloro-4-fluoro-benzo[b]thiophene-2-carboxylic acid [5-(2,6-dimethyl-pyridin-4-yl)-2-methoxy-benzyl]-(4-methylamino-cyclohexyl)-amide dihydrochloride] | 50 to 250 nM | < 50 nM |  | 50 to 250 nM | 
CNC1CCC(N(Cc2cc(-c3ccc(N)nc3C)ccc2OC)C(=O)c2sc3ccccc3c2Cl)CC1 (stereo not shown) [Compound 398, 3-Chloro-benzo[b]thiophene-2-carboxylic acid [5-(6-amino-2-methyl-pyridin-3-yl)-2-methoxy-benzyl]-(4-methylamino-cyclohexyl)-amide dihydrochloride] | 250 to 1000 nM | 1000 to 2500 nM |  | 1000 to 2500 nM | 
CCOc1ccc(-c2ccc(NC)nc2)cc1CN(C(=O)c1sc2ccccc2c1Cl)[C@H]1CC[C@H](NC)CC1 [Compound 399, 3-Chloro-benzo[b]thiophene-2-carboxylic acid [2-ethoxy-5-(6-methylamino-pyridin-3-yl)-benzyl]-(4-methylamino-cyclohexyl)-amide dihydrochloride] | 250 to 1000 nM | 1000 to 2500 nM |  | 1000 to 2500 nM | 
CCOc1ccc(-c2cnc(NC)nc2)cc1CN(C(=O)c1sc2ccccc2c1Cl)[C@H]1CC[C@H](NC)CC1 [Compound 402, 3-Chloro-benzo[b]thiophene-2-carboxylic acid [2-ethoxy-5-(2-methylamino-pyrimidin-5-yl)-benzyl]-(4-methylamino-cyclohexyl)-amide dihydrochloride] | 50 to 250 nM | 1000 to 2500 nM |  | 250 to 1000 nM | 
CN[C@H]1CC[C@H](N(Cc2cc(-c3ccc(C(C)=O)cc3)ccc2F)C(=O)c2sc3ccccc3c2Cl)CC1 [Compound 419, 3-Chloro-benzo[b]thiophene-2-carboxylic acid (4′-acetyl-4-fluoro-biphenyl-3-ylmethyl)-(4-methylamino-cyclohexyl)-amide trifluoroacetate] | 50 to 250 nM | < 50 nM |  | 250 to 1000 nM | 
CN[C@H]1CC[C@H](N(Cc2cc(-c3ccc(C(=O)C(F)(F)F)cc3)ccc2F)C(=O)c2sc3ccccc3c2Cl)CC1 [Compound 424, 3-Chloro-benzo[b]thiophene-2-carboxylic acid [4-fluoro-4′-(2,2,2-trifluoro-acetyl)-biphenyl-3-ylmethyl]-(4-methylamino-cyclohexyl)-amide trifluoroacetate] | < 50 nM | < 50 nM |  | 250 to 1000 nM | 
CN[C@H]1CC[C@@H](N(Cc2cc(-c3ccccc3)ccc2OC)C(=O)c2sc3ccccc3c2Cl)CC1 [Compound R3, 3-Chloro-benzo[b]thiophene-2-carboxylic acid (4-methoxy-biphenyl-3-ylmethyl)-(4-methylamino-cyclohexyl)-amide hydrochloride] | 50 to 250 nM | < 50 nM |  | 50 to 250 nM | 

The next lines start with results.

EC50 ([1]; read-out: Daoy Avg. EC50) | EC50 [2] | EC50 [1, 5] | Structure (SMILES) | EC50 [3] | EC50 [4]
< 50 nM | < 50 nM |  | CN[C@H]1CC[C@@H](N(Cc2cc(-c3ccnc(C)c3)ccc2OC)C(=O)c2sc3c(F)ccc(F)c3c2Cl)CC1 [Compound 345, 3-Chloro-4,7-difluoro-benzo[b]thiophene-2-carboxylic acid [2-methoxy-5-(2-methyl-pyridin-4-yl)-benzyl]-(4-methylamino-cyclohexyl)-amide dihydrochloride] | < 50 nM | 
< 50 nM | < 50 nM |  | CN[C@H]1CC[C@@H](N(Cc2cc(-c3ccc(N(C)C=O)cc3)ccc2OC)C(=O)c2sc3cccc(F)c3c2Cl)CC1 [Compound 347, 3-Chloro-4-fluoro-benzo[b]thiophene-2-carboxylic acid [4′-(formyl-methyl-amino)-4-methoxy-biphenyl-3-ylmethyl]-(4-methylamino-cyclohexyl)-amide trifluoroacetate] | < 50 nM | 
< 50 nM | < 50 nM |  | CN[C@H]1CC[C@@H](N(Cc2cc(-c3ccc(C(=O)C(F)(F)F)cc3)ccc2OC)C(=O)c2sc3c(F)ccc(F)c3c2Cl)CC1 [Compound 349, 3-Chloro-4,7-difluoro-benzo[b]thiophene-2-carboxylic acid [4-methoxy-4′-(2,2,2-trifluoro-acetyl)-biphenyl-3-ylmethyl]-(4-methylamino-cyclohexyl)-amide trifluoroacetate] | < 50 nM | 
< 50 nM | < 50 nM |  | CN[C@H]1CC[C@@H](N(Cc2cc(-c3cc(C)nc(C)c3)ccc2OC)C(=O)c2sc3c(F)ccc(F)c3c2Cl)CC1 [Compound 350, 3-Chloro-4,7-difluoro-benzo[b]thiophene-2-carboxylic acid [5-(2,6-dimethyl-pyridin-4-yl)-2-methoxy-benzyl]-(4-methylamino-cyclohexyl)-amide dihydrochloride] | 50 to 250 nM | 
< 50 nM | < 50 nM |  | CN[C@H]1CC[C@@H](N(Cc2cc(-c3ccnc(N(C)C)c3)ccc2OC)C(=O)c2sc3c(F)ccc(F)c3c2Cl)CC1 [Compound 358, 3-Chloro-4,7-difluoro-benzo[b]thiophene-2-carboxylic acid [5-(2-dimethylamino-pyridin-4-yl)-2-methoxy-benzyl]-(4-methylamino-cyclohexyl)-amide dihydrochloride] | < 50 nM | 
 |  | < 50 nM | CN[C@H]1CC[C@@H](N(Cc2cc(-c3ccc(CS(C)(=O)=O)cc3)ccc2OC)C(=O)c2sc3c(F)ccc(F)c3c2Cl)CC1 [Compound 369, 3-Chloro-4,7-difluoro-benzo[b]thiophene-2-carboxylic acid (4′-methanesulfonylmethyl-4-methoxy-biphenyl-3-ylmethyl)-(4-methylamino-cyclohexyl)-amide hydrochloride] |  | < 50 nM
 |  | < 50 nM | CN[C@H]1CC[C@@H](N(Cc2cc(-c3ccc(NS(C)(=O)=O)cc3)ccc2OC)C(=O)c2sc3c(F)ccc(F)c3c2Cl)CC1 [Compound 370, 3-Chloro-4,7-difluoro-benzo[b]thiophene-2-carboxylic acid (4′-methanesulfonylamino-4-methoxy-biphenyl-3-ylmethyl)-(4-methylamino-cyclohexyl)-amide hydrochloride] |  | < 50 nM
 |  | < 50 nM | CN[C@H]1CC[C@@H](N(Cc2cc(-c3ccc(N(C)S(C)(=O)=O)cc3)ccc2OC)C(=O)c2sc3c(F)ccc(F)c3c2Cl)CC1 [Compound 371, 3-Chloro-4,7-difluoro-benzo[b]thiophene-2-carboxylic acid [4′-(methanesulfonyl-methyl-amino)-4-methoxy-biphenyl-3-ylmethyl]-(4-methylamino-cyclohexyl)-amide hydrochloride] |  | < 50 nM
 |  | < 50 nM | CNC1CCC(N(Cc2cc(-c3cccc(SC)c3)ccc2OC)C(=O)c2sc3c(F)ccc(F)c3c2Cl)CC1 (stereo not shown) [Compound 372, 3-Chloro-4,7-difluoro-benzo[b]thiophene-2-carboxylic acid (4-methoxy-3′-methylsulfanyl-biphenyl-3-ylmethyl)-(4-methylamino-cyclohexyl)-amide hydrochloride] |  | < 50 nM
 |  | < 50 nM | CNC1CCC(N(Cc2cc(-c3ccc(SC)cc3)ccc2OC)C(=O)c2sc3c(F)ccc(F)c3c2Cl)CC1 (stereo not shown) [Compound 373, 3-Chloro-4,7-difluoro-benzo[b]thiophene-2-carboxylic acid (4-methoxy-4′-methylsulfanyl-biphenyl-3-ylmethyl)-(4-methylamino-cyclohexyl)-amide hydrochloride] |  | < 50 nM
